Laboratory results taken from PubChem BioAssay AID330 (DTP/NCI, 2004).
Where “and” joins values, the source holds several entries; their conditions need not be identical. Identical values can stand only once. Toxic doses and inconclusive results are not listed. Rule for the calls: active = survival T/C of 150% or more; inactive = T/C below 125% in these data.

Tested on: P388 leukemia ip, CD2F1 mice, survival T/C
Assay: NCI In Vivo Anticancer Drug Screen. Data for tumor model P388 Leukemia (intraperitoneal) in CD2F1 (CDF1) mice
Details: endpoint: median survival time, higher = longer survival
In short: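 Mice carrying the transplanted tumor received test compound or vehicle. Survival was recorded in each group, and the value is the treated-group measurement divided by that of the vehicle-treated control group.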

[1] = dose: 50.0 mg/kg/injection, schedule: Q01DX009 (ip), vehicle: saline
[2] = dose: 200.0 mg/kg/injection, schedule: Q01DX009 (ip), vehicle: saline
[3] = dose: 25.0 mg/kg/injection, schedule: Q04DX003 (ip), vehicle: saline
[4] = dose: 50.0 mg/kg/injection, schedule: Q04DX003 (ip), vehicle: saline
[5] = dose: 100.0 mg/kg/injection, schedule: Q04DX003 (ip), vehicle: saline with Tween-80
[6] = dose: 200.0 mg/kg/injection, schedule: Q04DX003 (ip), vehicle: saline with Tween-80
[7] = dose: 60.0 mg/kg/injection, schedule: Q01DX005 (ip), vehicle: saline with Tween-80
[8] = dose: 120.0 mg/kg/injection, schedule: Q01DX005 (ip), vehicle: saline with Tween-80
[9] = dose: 100.0 mg/kg/injection, schedule: Q01DX001 (ip), vehicle: saline
[10] = dose: 200.0 mg/kg/injection, schedule: Q01DX001 (ip), vehicle: saline
[11] = dose: 60.0 mg/kg/injection, schedule: Q01DX005 (ip), vehicle: Klucel (hydroxypropylcellulose) (HPC)
[12] = dose: 120.0 mg/kg/injection, schedule: Q01DX005 (ip), vehicle: Klucel (hydroxypropylcellulose) (HPC)
[13] = dose: 240.0 mg/kg/injection, schedule: Q01DX005 (ip), vehicle: Klucel (hydroxypropylcellulose) (HPC)
[14] = dose: 50.0 mg/kg/injection, schedule: Q01DX009 (ip), vehicle: saline with Tween-80
[15] = dose: 100.0 mg/kg/injection, schedule: Q01DX009 (ip), vehicle: saline with Tween-80
[16] = dose: 200.0 mg/kg/injection, schedule: Q01DX009 (ip), vehicle: saline with Tween-80
[17] = dose: 400.0 mg/kg/injection, schedule: Q01DX009 (ip), vehicle: saline with Tween-80
[18] = dose: 400.0 mg/kg/injection, schedule: Q04DX003 (ip), vehicle: saline with Tween-80

Measured: T/C

Cc1ccc([P+](CCN2C(=O)c3ccccc3C2=O)(c2ccc(C)cc2)c2ccc(C)cc2)cc1
inactive: dose: 0.39 mg/kg/injection, schedule: Q01DX009 (ip), vehicle: water 111 % of control | dose: 0.78 mg/kg/injection, schedule: Q01DX009 (ip), vehicle: water 121 % of control | dose: 1.56 mg/kg/injection, schedule: Q01DX009 (ip), vehicle: water 115 % of control | dose: 3.13 mg/kg/injection, schedule: Q01DX009 (ip), vehicle: water 121 % of control

OC1c2ccccc2-c2ccccc2C1O (centres undefined)
inactive: dose: 100.0 mg/kg/injection, schedule: Q04DX002 (ip), vehicle: saline with Tween-80 101 % of control and 102 % of control | dose: 200.0 mg/kg/injection, schedule: Q04DX002 (ip), vehicle: saline with Tween-80 101 % of control and 97 % of control | dose: 400.0 mg/kg/injection, schedule: Q04DX002 (ip), vehicle: saline with Tween-80 101 % of control

CP1(=O)CC2=C(CC2)C1
inactive: [1] 108 % of control | dose: 100.0 mg/kg/injection, schedule: Q01DX009 (ip), vehicle: saline 103 % of control | [2] 95 % of control

OC(c1ccccc1)C1CC=CCC1 (centres undefined)
inactive: dose: 12.5 mg/kg/injection, schedule: Q04DX003 (ip), vehicle: saline 97 % of control | dose: 25.0 mg/kg/injection, schedule: Q04DX003 (ip), vehicle: saline with Tween-80 101 % of control and 98 % of control | [3] 105 % of control | dose: 50.0 mg/kg/injection, schedule: Q04DX003 (ip), vehicle: saline with Tween-80 111 % of control and 96 % of control | [4] 109 % of control | [5] 99 % of control | dose: 100.0 mg/kg/injection, schedule: Q04DX003 (ip), vehicle: saline 103 % of control | [6] 99 % of control

COC(=O)c1cc2c(cc1C(=O)OC)C(=O)c1ccccc1C2=O
inactive: [7] 100 % of control | [8] 101 % of control | dose: 240.0 mg/kg/injection, schedule: Q01DX005 (ip), vehicle: saline with Tween-80 92 % of control

C#CCCCCCC#CCCCCCC#CC(=O)O
inactive: [9] 104 % of control | [10] 101 % of control

C1CCC2C(C1)CC[N-]C2CCC1[N-]CCC2CCCCC21.C1CCC2C(C1)CC[N-]C2CCC1[N-]CCC2CCCCC21.[Ni+2].[O-][Cl+3]([O-])([O-])O (centres undefined)
inactive: dose: 25.0 mg/kg/injection, schedule: Q01DX001 (ip), vehicle: saline 100 % of control | dose: 50.0 mg/kg/injection, schedule: Q01DX001 (ip), vehicle: saline 100 % of control and 101 % of control | [9] 101 % of control and 108 % of control and 97 % of control | [10] 98 % of control and 100 % of control

CNc1ccccc1Sc1cnc(N)nc1C
inactive: [11] 94 % of control | [12] 91 % of control | [13] 90 % of control

N#CC(Br)(C#N)Cc1ccccc1
inactive: dose: 25.0 mg/kg/injection, schedule: Q01DX009 (ip), vehicle: Klucel (hydroxypropylcellulose) (HPC) 87 % of control | dose: 50.0 mg/kg/injection, schedule: Q01DX009 (ip), vehicle: Klucel (hydroxypropylcellulose) (HPC) 100 % of control

O=C(O)c1ncnn1-c1ccccc1
inactive: dose: 60.0 mg/kg/injection, schedule: Q01DX005 (ip), vehicle: saline 91 % of control | dose: 120.0 mg/kg/injection, schedule: Q01DX005 (ip), vehicle: saline 96 % of control | dose: 240.0 mg/kg/injection, schedule: Q01DX005 (ip), vehicle: saline 99 % of control

CCC(c1ccc(OC)cc1)C(NC(=S)Nc1ccc(Br)cc1)c1ccc(OC)cc1 (centres undefined)
inactive: dose: 100.0 mg/kg/injection, schedule: Q01DX001 (ip), vehicle: saline with Tween-80 96 % of control | dose: 200.0 mg/kg/injection, schedule: Q01DX001 (ip), vehicle: saline with Tween-80 99 % of control | dose: 400.0 mg/kg/injection, schedule: Q01DX001 (ip), vehicle: saline with Tween-80 93 % of control

CC(C)(N)C(=O)O
inactive: dose: 12.5 mg/kg/injection, schedule: Q01DX009 (ip), vehicle: saline with Tween-80 101 % of control | dose: 25.0 mg/kg/injection, schedule: Q01DX009 (ip), vehicle: saline with Tween-80 94 % of control | [14] 100 % of control | [15] 94 % of control | [16] 100 % of control | [17] 94 % of control | dose: 800.0 mg/kg/injection, schedule: Q01DX009 (ip), vehicle: saline with Tween-80 94 % of control | dose: 1600.0 mg/kg/injection, schedule: Q01DX009 (ip), vehicle: saline with Tween-80 94 % of control

O=C1NN=C(c2ccc(Br)cc2)CS1
inactive: [14] 92 % of control and 97 % of control | [15] 101 % of control and 87 % of control | [16] 113 % of control and 120 % of control

Clc1ccc(CSc2ncnc3nc[nH]c23)cc1
inactive: [5] 109 % of control | [6] 104 % of control | [18] 109 % of control

CCCCCCCCCCN=Cc1c(O)c(O)c(CCC)c2cc(C)c(-c3c(C)cc4c(CCC)c(O)c(O)c(C=NCCCCCCCCCC)c4c3O)c(O)c12
inactive: dose: 25.0 mg/kg/injection, schedule: Q01DX005 (ip), vehicle: Klucel (hydroxypropylcellulose) (HPC) 100 % of control | dose: 50.0 mg/kg/injection, schedule: Q01DX005 (ip), vehicle: Klucel (hydroxypropylcellulose) (HPC) 95 % of control | dose: 100.0 mg/kg/injection, schedule: Q01DX005 (ip), vehicle: Klucel (hydroxypropylcellulose) (HPC) 98 % of control | dose: 200.0 mg/kg/injection, schedule: Q01DX005 (ip), vehicle: Klucel (hydroxypropylcellulose) (HPC) 95 % of control

O=C(O)/C(Cl)=C(\Cl)C(=O)Nc1cccc([N+](=O)[O-])c1
inactive: dose: 7.5 mg/kg/injection, schedule: Q01DX005 (ip), vehicle: saline with Tween-80 100 % of control | dose: 15.0 mg/kg/injection, schedule: Q01DX005 (ip), vehicle: saline with Tween-80 101 % of control | [7] 100 % of control and 103 % of control | [8] 106 % of control

CCOC(=O)Cc1cccc(C)n1
inactive: [15] 100 % of control | [16] 109 % of control | [17] 104 % of control

c1ccc2nc(-c3cc4ccccc4s3)ccc2c1
inactive: [15] 100 % of control and 104 % of control | [5] 90 % of control | [16] 100 % of control and 90 % of control | [6] 90 % of control | [17] 109 % of control and 95 % of control | [18] 90 % of control

COc1ccc(C(Nc2ncccn2)c2cc(C(C)(C)C)cc(C(C)(C)C)c2O)cc1 (centres undefined)
inactive: dose: 50.0 mg/kg/injection, schedule: Q01DX005 (ip), vehicle: distilled water + alcohol 101 % of control | dose: 100.0 mg/kg/injection, schedule: Q01DX005 (ip), vehicle: distilled water + alcohol 101 % of control | dose: 200.0 mg/kg/injection, schedule: Q01DX005 (ip), vehicle: distilled water + alcohol 97 % of control

COc1ccccc1OC(C)=O
inactive: [1] 97 % of control | [2] 88 % of control

CCN(CC)P(CCCCP(N(CC)CC)N(CC)CC)N(CC)CC
inactive: [11] 106 % of control | [12] 103 % of control | [13] 104 % of control

CCCCCCCCCCCCCC(=O)Oc1ccc[nH]c1=O
inactive: dose: 50.0 mg/kg/injection, schedule: Q01DX005 (ip), vehicle: saline with Tween-80 91 % of control | dose: 100.0 mg/kg/injection, schedule: Q01DX005 (ip), vehicle: saline with Tween-80 90 % of control | dose: 200.0 mg/kg/injection, schedule: Q01DX005 (ip), vehicle: saline with Tween-80 90 % of control | dose: 400.0 mg/kg/injection, schedule: Q01DX005 (ip), vehicle: saline with Tween-80 98 % of control

N#Cc1ccccc1NN=Nc1ccccc1-c1nc(N)nc(N)n1
inactive: dose: 12.0 mg/kg/injection, schedule: Q04DX003 (ip), vehicle: saline 113 % of control | [3] 113 % of control
active: [4] 181 % of control

CN(c1ccccc1)c1cc(O)[nH]c(=O)c1
inactive: dose: 12.5 mg/kg/injection, schedule: Q01DX009 (ip), vehicle: water 96 % of control | dose: 25.0 mg/kg/injection, schedule: Q01DX009 (ip), vehicle: water 111 % of control | dose: 50.0 mg/kg/injection, schedule: Q01DX009 (ip), vehicle: water 99 % of control | dose: 100.0 mg/kg/injection, schedule: Q01DX009 (ip), vehicle: water 100 % of control | dose: 200.0 mg/kg/injection, schedule: Q01DX009 (ip), vehicle: water 97 % of control
